Experimental data from patent EP1101492A1, “NOVEL REMEDIES FOR ALLERGIC DISEASES” (FUJI YAKUHIN KOGYO KABUSHIKI KAISHA, priority 1998, dated 2000).

Assays:
[1] = tested on: mouse experimental atopic dermatitis models; assay: Auricle edema in experimental atopic dermatitis model (anti-DNP IgE sensitization, DNFB elicitation); type: in vivo, Balb/c mice; conditions: for % Inhibition IPR: auricle edema 1 hour post-elicitation; for % Inhibition IPR / % Inhibition LPR / % Inhibition vLPR: test compounds 60 mg/kg s.c., prednisolone 10 mg/kg i.p.; for % Inhibition IPR / % Inhibition LPR: once a day, 24 & 2 hours prior to DNFB-elicitation, vs untreated group; for % Inhibition LPR: auricle edema Day 1 post-elicitation; for % Inhibition vLPR: auricle edema Day 7 post-elicitation
Description: Intravenous injection of an anti-2,4-dinitrophenol (DNP) antibody (anti-DNP Ab, monoclonal IgE Ab; its antibody titer was 1 : 512 to 1 : 1024 by a rat heterologous passive cutaneous anaphylaxis reaction using a Wister rat) into a tail vein of female Balb/c mice (7-week old, body weight: 17 to 20 g, purchased from JAPAN SLC, Inc.) at a dose of […] per animal raised passive sensitization. Twenty four hours post-sensitization, 0.1% 2,4-dinitrofluorobenzene (DNFB; Nacalai Tesque, Inc.) in ethanol was painted onto both sides of a pair of mouse auricles at a dose of 10µL per each side for elicitation.
Fresh unsensitized mice were painted with 0.1% DNFB in ethanol onto their ear in the same manner as aforementioned and served as a control group. Not only immediately prior to elicitation but also 1 hour, 5 hours, daily between Days 1 and 14, and on Day 16 post-elicitation, ear thickness was measured using a dial thickness gauge (Peacock Co.). Each degree of auricle edemas was calculated: Auricular Edema (µm)=(Ear Thickness Post-Elicitation, µm) - (Ear Thickness immediately prior to Elicitation, µm) [formula]
Balb/c mice were passively sensitized with anti-DNP IgE Ab in the same manner as in Example 1. Twenty four hours later, 0.1% DNFB in ethanol was painted onto both sides of a pair of mouse auricles at a dose of 10 µL per each side for elicitation.
Immediately prior to elicitation, 1 hour and on Day 1 post-elicitation, auricle thickness was measured in the same manner as in Example 1. Each therapeutic efficacy is recorded as a percent inhibition wherein the "auricle edema (untreated group)" is used as a control. Auricle Edema Inhibition (%) = [ 1 -(Auricle Edema (Treated Group))/(Auricle Edema (Untreated Group))] × 100 (%) [formula]
Immediately prior to elicitation, and on Day 7 post-elicitation, auricle thickness was similarly measured. Each therapeutic efficacy is recorded as a percent inhibition wherein the auricle edema in the untreated group is used as a control.
Immediately prior to elicitation, and on Day 7 post-elicitation, auricle thickness was similarly measured. Each therapeutic efficacy is recorded as a percent inhibition wherein the auricle edema (untreated group) is used as a control.
Immediately prior to elicitation, at 1 and 4 hours and on Days 1, 3 and 7 post-elicitation, auricle thickness was similarly measured. From each auricle edema (µm) based on the auricle thickness immediately prior to elicitation, especially a prophylactically therapeutic efficacy of the test compound was evaluated.
Immediately prior to elicitation, at 0.5, 1 and 4 hours and on Days 1, 3 and 7 post-elicitation, auricle thickness was similarly measured. Each amount of auricle edemas was calculated (average± standard deviation).

[2] = Body weight gain in sensitized mice; type: in vivo; conditions: test compound 50 µg/ear/dose, prednisolone 5 µg/ear/dose, in ethanol painted twice a day, Days 1, 4 and 7, vs solvent control (ethanol)
Description: Experimental atopic dermatitis model mice sensitized in the same manner as in Example 1 were examined for influence on body weight gains.
Each mouse was measured for its body weight not only immediately before the start in painting but also on Days 1, 4 and 7 after the start in painting. Each gain in body weight was calculated and considered to indicate an effect on body weight changes affected by said treatments.

Body weight gain in mice = conditions: test compounds 60 mg/kg s.c., prednisolone 10 mg/kg i.p., once a day for 6 days (Days 0-5), average ± standard deviation; for Body Weight Gain, Observation Day 5: non-administered 0.50± 0.23; for Body Weight Gain, Observation Day 7: non-administered 0.80± 0.48; for Body Weight Gain, Observation Day 10: non-administered 1.07± 0.58
Description: Accordingly, for assessing the side-effect each of the following test compounds an action on body weight gains was examined.
Next the mice were measured for their body weight. Each body weight gain was calculated on Days 5, 7 and 10 post-administration based on the body weight just prior to administration.

[3] = tested on: guinea pig experimental bronchial asthma models; assay: Experimental bronchial asthma model (ovalbumin inhalation): airway resistance and asthmatic death; conditions: prednisolone 10 mg/kg orally;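 note: female Std:Hartley guinea pigs sensitized by inhaling nebulized ovalbumin once daily for 8 consecutive days, 8 to 11 animals per group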
Description: Guinea pigs (female, Std:Hartley, 3 weeks old, 200 to 250 g) were individually housed in a plastic chamber (width, 200 mm; depth, 300 mm; height, 167 mm). Aqueous ovalbumin (10 mg/mL) was administered to the guinea pigs once a day for sensitization by 10 min. inhalation with a nebulizer (5B, Nippon Shoji K.K.: flow rate, 6 L/min.) at a dose of 10 mg/mL during 8 cosecutive days. On Day 7 after the final sensitization, the guinea pigs were housed in a plastic chamber and inhaled using a nebulizer with a solution of ovalbumin (10 mg/mL) in physiological saline for 1 min. for elicitation (Matsumoto, T., et al., The Journal of Pharmacology and Experimental Therapeutics, 269: 1236-1244, 1994). The number of animals employed in the experiment was set to the extent there are at least 6 as individuals escaping asthmatic death. A solution of a test compound (Compound No. 130, 15 mg/kg) in water for injection was administered subcutaneously twice, i.e., 24 hours and 2 hours prior to elicitation. Similarly, the solvent alone was also administered to a negative control group. A suspension of prednisolone (10 mg/kg) in 0.5% aqueous methyl cellulose was administered orally twice, i.e., 24 hours and 2 hours prior to elicitation. Similarly, the solvent alone was also administered to another control group.
The evaluation for efficacies was conducted in terms of airway resistance. For this purpose, an apparatus dedicated to the measurement of airway resistance (K.K. Medical Agent) was employed. Measurement includes setting a guinea pig in a test chamber under a not-anesthetized condition, applying sinusoidal pressure waves of 30 Hz components to a part below the neck of the animal from the back side of the chamber, measuring respiratory waves of 30 Hz components leaking through the mouth (volume of 30 Hz air flow passing through the respiratory tract) in front of the neck, and calculating airway resistance mechanically. Measurement was carried out immediately prior to the first drug treatment (24 hours before elicitation), just prior to elicitation, 10 minutes, 1, 2, 4, 6, and 8 hours post-elicitation.
It was visually observed by a person carrying out said test in terms, of the appearance of cyanosis or suffocative death (asthmatic death) due to respiratory obstruction.
Guinea pigs were sensitized with ovalbumin and asthma was induced on Day 7 after final sensitization in the same manner as in Example 20. The number of animals employed in the experiment was set to the extent there are at least 6 as individuals escaping asthmatic death (8 to 11 animals/group). In the same manner as in Example 20, the animals were measured for airway resistance mechanically and each percent change (%) in airway resistance was calculated (each value just prior to elicitation was set as 100%). Each percent amelioration in airway resistance was calculated from the percent changes in airway resistance according to the following formula: Amelioration in Airway Resistance (%) = 1 -[((Percent Change in Airway Resistance after Drug-Administration) - (Value just prior to Challenge (100)))/((Percent Change in Airway Resistance after Solvent-Administration) - (Value just prior to Challenge (100)))]× 100 [formula]

IgE = assay: Serum IgE level in sensitized and DNFB-elicited mice (ELISA); type: in vivo, Balb/c mice; conditions: 100 µg/ear in ethanol painted twice a day, 1 hour pre-elicitation, 0.25, 4, 5 and 6 days post-elicitation; serum 7 days post-elicitation; average ± standard deviation; untreated 34.55 ± 8.89, healthy 11.79 ± 2.35
From the text: Ethanol alone was also painted onto both sides of a mouse left auricle. […] Blood was also drawn from unsensitized healthy mice and untreated mice and treated to give serum samples. Seven days post-elicitation, blood samples were drawn by cardiac puncture using a syringe treated with heparin, and then centrifuged to give serum samples.
A dilution of polyclonal goat anti-mouse IgE antibody (Bethyl Laboratories, Inc.; 500-fold dilution) in 0.1 M sodium carbonate-sodium bicarbonate buffer (pH 9.6) was added to each well of a 96-well microtest plate (MaxiSorp, Nunc, Inc.) at a rate of 100 µL/well and the resultant microtest plates were allowed to stand at about 4°C overnight in a refrigerator. Each well was rinsed 3 times with phosphate buffer (pH 7.4) containing 0.05% Tween 20. Next, 0.1 M sodium carbonate-sodium bicarbonate buffer (pH 9.6) containing 1 % bovine serum albumin was added to each well at a rate of 100 µL/well. The resultant microtest plates were allowed to stand at room temperature for 1 hour and washed 3 times. Thereafter, 2-fold serial dilutions of mouse serum samples were poured into each well of microtest plates at 100 µL/well, which was subjected to an antigen-antibody reaction at 4°C for 2 hours. […] The resultant enzymatic reaction products were measured at 405 nm.

[4] = daily from 3 to 6 days after DNFB-elicitation
[5] = daily from 1 day prior to through 5 days after DNFB-elicitation
[6] = asthmatic death due to cyanosis within several minutes after elicitation, Compound No. 130 15 mg/kg s.c., 24 and 2 hours prior to elicitation
[7] = test compounds 15 mg/kg s.c. (Compound No. 114: 30 mg/kg), 24 and 2 hours prior to elicitation, vs solvent control

C[C@]12C=CC(=O)C=C1CC[C@@H]1[C@@H]2[C@@H](O)C[C@@]2(C)[C@H]1CC[C@]2(O)C(=O)CO [Prednisolone, reference compound]
% Inhibition IPR [1]: 36.8% | % Inhibition LPR [1]: 29.9% | % Inhibition vLPR [1, 4]: 24.8% | % Inhibition vLPR [1, 5]: 24.8% | gain in body weight (FIG. 10) [2]: below that in the solvent control group | Body Weight Gain, Observation Day 5 (Body weight gain in mice): 0.00± 0.26 | Body Weight Gain, Observation Day 7 (Body weight gain in mice): 0.03± 0.57 | Body Weight Gain, Observation Day 10 (Body weight gain in mice): 0.97± 0.47 | % Mortality [3, 6]: 22.2% | (Dead Animals)/(Tested Animals) [3, 6]: 2/9 | % Survival ([3]; asthmatic death within several minutes after elicitation, test compounds 15 mg/kg s.c. (Compound No. 114: 30 mg/kg), water for injection 54.5, 0.5% methyl cellulose 66.7): 75.0% | % Amelioration in Airway Resistance, 1 Hour after Elicitation [3, 7]: 23.6% | % Amelioration in Airway Resistance, 6 Hours after Elicitation [3, 7]: 14.8% | % Amelioration in Airway Resistance, Immediately after Elicitation [3, 7]: 11.5%

CC(=N)NCCCC[C@H](NC(=O)[C@H](CC(C)C)C(CCCc1ccccc1)C(=O)NO)C(=O)NCCN(C)C.CC(=O)O.CC(=O)O (mixture of isomers) [Compound No. 44, N^a-[4-(Hydroxyamino)-2(R)-isobutyl-3(RS)-(3-phenylpropyl)succinyl]-N^e-acetimidoyl-L-lysine N-(2-N',N'-dimethylaminoethyl)amide · 2 acetate]
inhibitory efficacy on IgE-mediated auricle edema (FIG. 8) ([1]; 150 mg/kg orally once a day, compared to solvent control group, IPR 1 hour, LPR 1 day, vLPR 7 days): not only an inhibitory activity on the development of edemas in both IPR and LPR but also a remarkably strong inhibitory activity in vLPR | % Inhibition IPR [1]: 43.9% | % Inhibition LPR [1]: 43.6% | % Inhibition vLPR [1, 4]: 65.6% | % Inhibition vLPR [1, 5]: 22.0% | Serum IgE Level (IgE): 26.70 ± 10.88 ng/mL | Body Weight Gain, Observation Day 5 (Body weight gain in mice): 0.80± 0.30 | Body Weight Gain, Observation Day 7 (Body weight gain in mice): 1.08± 0.57 | Body Weight Gain, Observation Day 10 (Body weight gain in mice): 1.23± 0.56
